This assay deals with C1300 mouse neuroblastoma cells, Neuro-2a clone. As to the kind of experiment: Neuritogenic activity (cells with neurites, optical microscopy). The class given is cell-based. Here is the method:
C1300 mouse neuroblastoma cells, Neuro-2a clone, (American Cell Type Culture Collection, Bethesda, Md.) were grown at a density of 10,000 cells/well in a culture medium containing Dulbecco's modified Eagle medium (DMEM, Flow), 10% fetal calf serum (FCS, batch IP 02, Seromed), penicillin (100 units per ml, Irvine), and L-glutamine (2 mM, Sigma). Cells were incubated at 37° C. for 24 hours, and medium was removed and substituted with 350 μl of fresh medium plus compounds to be tested.
Tested Compounds and Their Solubilization
Compounds ND35 and ND37 were solubilized at a concentration of 1×10^-2 M in dimethylsulfoxide (1% DMSO). For the different compounds, progressive dilutions in culture medium were performed (concentrations from 1×10^-5 to 1×10^-4 M).
Neuritogenic activity (cell number with neurites, optical microscopy)
Culture plates were incubated with compounds to be tested and analyzed using a phase contrast microscope (250×). Nine fields with prefixed coordinates were chosen and photographed. Then the total number of cells and those with neurites (length at least double the cell diameter) were counted in blind in each photograph. The percentage of cells with neurites was determined after counting of at least 100 cells (Facci L. et al.: Promotion of neuritogenesis in mouse neuroblastoma cells by exogenous ganglioside GM1. J. Neurochem. Raven Press, New York, 299-305,1984).

For the molecule `CCCCCCCCCCCCCCCC(=O)NC1C(O)CC(OCC)(C(=O)NCCCN(C)C)OC1C(O)C(O)CO` (centres unmarked) [ND35, 2-ethylglycoside of N-palmitoyl-neuraminic acid dimethylaminopropylamide], the “Cells with neurities (%)” value (1 × 10^-4 M) is listed as 39 ± 7%, the “Cells with neurities (%)” value (1 × 10^-5 M) was 7 ± 2%, the “Cells with neurities (%)” value (2.5 × 10^-5 M) worked out at 7 ± 3% and the “Cells with neurities (%)” value (5 × 10^-5 M) is on record as 28 ± 7%. Moreover, the neuritogenesis in vitro entry (1×10^-5 to 1×10^-4 M) is recorded as “induce neuritogenesis”.
